Legend:
[1] = test system: Staphylococcus aureus KB199; assay: MIC against Staphylococcus aureus KB199 (B); assay type: cell-based; details: Heart infusion agar (pH 7.0)
Source text: (§1) The minimum inhibitory concentration (MIC) of Compound (I) is shown in Table 4 in comparison with that of spiramycin I.
(§2) Minimum inhibitory concentration (MIC, μ g/ml)
(§3) Remark: medium used: Heart infusion agar (pH 7.0)
B: Staphylococcus aureus KB199

[2] = test system: Streptococcus pneumoniae Type III; assay: Infection-healing effect, mice protection test (Test Example); assay type: in vivo; details: for Number of survived mice out of 10 mice: 60 mg/kg in 0.3% CMC, orally just after i.p. inoculation (1.1×10^2 cfu/mouse), 7th day; for therapeutic effect in an infection-healing test in mice: Streptococcus pneumoniae Type III, compared with acetylspiramycin and 3, 3", 4"-tri-O-acetylspiramycin I
Protocol: A test example of the therapeutic effect of Compound (I) in experimental test mice protection test will be given below:
Animal: ddY-strain male mice, 19±lg, one group consisting of ten mice.
Test bacterium: Streptococcus pneumoniae Type III, Inoculation rate: 1.1×10^2 cfu/mouse.
The predetermined amount of the precultured test bacteria was inoculated via i.p.
Medicament administration: 60 mg/kg of each of the medicaments was suspended in 0.3% CMC, and orally administered just after the inoculation of bacteria.

[3] = test system: Staphylococcus aureus KB210; assay: MIC against Staphylococcus aureus KB210 (A); assay type: cell-based; details: Heart infusion agar (pH 7.0)
Source text: as §1, §2, §3
A: Staphylococcus aureus KB210

Escherichia coli KB213 = assay: MIC against Escherichia coli KB213 (F); assay type: cell-based; details: Heart infusion agar (pH 7.0)
Source text: as §1, §2, §3
F: Escherichia coli KB213

Bacillus subtilis KB211 = assay: MIC against Bacillus subtilis KB211 (C); assay type: cell-based; details: Heart infusion agar (pH 7.0)
Source text: as §1, §2, §3
C: Bacillus subtilis KB211

Bacillus cereus KB143 = assay: MIC against Bacillus cereus KB143 (D); assay type: cell-based; details: Heart infusion agar (pH 7.0)
Source text: as §1, §2, §3
D: Bacillus cereus KB143

Micrococcus ruteus KB212 = assay: MIC against Micrococcus ruteus KB212 (E); assay type: cell-based; details: Heart infusion agar (pH 7.0)
Source text: as §1, §2, §3
E: Micrococcus ruteus KB212

[4] = test system: Klebsiella pneumoniae KB214; assay: MIC against Klebsiella pneumoniae KB214 (G); assay type: cell-based; details: Heart infusion agar (pH 7.0)
Source text: as §1, §2, §3
G: Klebsiella pneumoniae KB214

[5] = background literature, in words; cited from earlier work
[6] = test system: Streptococcus pneumoniae Type III; assay: Healing effect on test infection in mice, ED50 (Reference Example 1); assay type: in vivo; details: oral, 0.3% CMC, just after i.p. inoculation; Probit method, survived animals on the 7th day
Source text: Comparison of healing effects of acetylspiramycin and 3, 3", 4"-tri-O-acetylspiramycin I on test infection in mice
Animal : ddY-strain male mice, 19±lg, one group consisting of ten mice.
Test bacterium : Streptococcus pneumoniae Type III. Inoculation rate : 1.1×10^2 cfu/mouse.
The predetermined amount of the precultured test bacteria was inoculated via i.p..
Medicament administration : Each of the medicaments was suspended in 0.3% CMC, and orally administered just after the inoculation of bacteria.

Compound | Minimum inhibitory concentration (MIC) [1] [μ g/ml] | Number of survived mice out of 10 mice [2] | Minimum inhibitory concentration (MIC) [3] [μ g/ml] | Minimum inhibitory concentration (MIC) (Escherichia coli KB213) [μ g/ml] | Minimum inhibitory concentration (MIC) (Bacillus subtilis KB211) [μ g/ml] | Minimum inhibitory concentration (MIC) (Bacillus cereus KB143) [μ g/ml] | Minimum inhibitory concentration (MIC) (Micrococcus ruteus KB212) [μ g/ml] | Minimum inhibitory concentration (MIC) [4] [μ g/ml] | therapeutic effect in an infection-healing test in mice [2] | in vivo activity compared with starting compounds [5] | ED50 [6] [mg/kg]
CO[C@@H]1[C@@H](O[C@@H]2O[C@H](C)[C@@H](O[C@H]3C[C@@](C)(O)[C@@H](O)[C@H](C)O3)[C@H](N(C)C)[C@H]2O)[C@@H](CC=O)C[C@@H](C)[C@@H](O[C@H]2CC[C@H](N(C)C)[C@@H](C)O2)/C=C/C=C/C[C@@H](C)OC(=O)C[C@H]1O [SPMI, Spiramycin I] | > 100 | 0 mice out of 10 mice | 1.56 | 100 | 0.78 | 1.56 | < 0.1 | 100 |  |  | 
CCC(=O)OC1CC(=O)OC(C)CC=CC=CC(OC2CCC(N(C)C)C(C)O2)C(C)CC(CC=O)C(OC2OC(C)C(OC3CC(C)(OC(C)=O)C(OC(=O)CC)C(C)O3)C(N(C)C)C2O)C1OC (stereo not shown) [Compound 8, 3"-O-acetyl-3, 4"-di-O-propionylspiramycin I] | > 100 | 10 mice out of 10 mice | 3.12 | > 100 | 3.12 | 3.12 | 0.2 | > 100 | more excellent therapeutic effect than acetylspiramycin and 3, 3", 4"-tri-O-acetylspiramycin I |  | 
CCCC(=O)OC1C(C)OC(OC2C(C)OC(OC3C(CC=O)CC(C)C(OC4CCC(N(C)C)C(C)O4)C=CC=CCC(C)OC(=O)CC(OC(=O)CC)C3OC)C(O)C2N(C)C)CC1(C)OC(=O)CC (stereo not shown) [Compound 9, 3, 3"-di-O-propionyl-4"-O-butyrylspiramycin I] | > 100 | 8 mice out of 10 mice | 3.12 | > 100 | 3.12 | 3.12 | 0.2 | > 100 | more excellent therapeutic effect than acetylspiramycin and 3, 3", 4"-tri-O-acetylspiramycin I |  | 
CCCC(=O)O[C@H]1[C@H](C)O[C@@H](O[C@H]2[C@H](N(C)C)[C@@H](O)[C@H](O[C@H]3[C@@H](CC=O)C[C@@H](C)[C@@H](O)/C=C/C=C/C[C@@H](C)OC(=O)C[C@@H](O)[C@@H]3OC)O[C@@H]2C)C[C@@]1(C)OC(=O)CC [3"-O-propionyl compound of leucomycin A5] |  |  |  |  |  |  |  |  |  | better in vivo activity | 
COC1C(OC(C)=O)CC(=O)OC(C)CC=CC=CC(OC2CCC(N(C)C)C(C)O2)C(C)CC(CC=O)C1OC1OC(C)C(OC2CC(C)(OC(C)=O)C(OC(C)=O)C(C)O2)C(N(C)C)C1O (stereo not shown) [3, 3", 4"-tri-O-acetylspiramycin, 3, 3", 4"-tri-O-acetylspiramycin I] |  |  |  |  |  |  |  |  |  |  | 69.5
3", 9-di-O-acetyl compound of midecamycin |  |  |  |  |  |  |  |  |  | better in vivo activity | 
CCCC(=O)OC1(C)CC(OC2C(C)OC(OC3C(CC=O)CC(C)C(OC4CCC(N(C)C)C(C)O4)C=CC=CCC(C)OC(=O)CC(OC(=O)CC)C3OC)C(O)C2N(C)C)OC(C)C1OC(=O)CC (stereo not shown) [Compound 7, 3, 4"-di-O-propionyl-3"-O-butyrylspiramycin I] | > 100 | 5 mice out of 10 mice | 3.12 | > 100 | 1.56 | 1.56 | < 0.1 | > 100 |  |  | 
CCC(=O)OC1CC(=O)OC(C)CC=CC=CC(OC2CCC(N(C)C)C(C)O2)C(C)CC(CC=O)C(OC2OC(C)C(OC3CC(C)(OC(=O)CC)C(OC(=O)CC)C(C)O3)C(N(C)C)C2O)C1OC (stereo not shown) [Compound 4, 3, 3", 4"-tri-O-propionylspiramycin I] | > 100 | 10 mice out of 10 mice | 1.56 | > 100 | 1.56 | 1.56 | < 0.1 | > 100 | more excellent therapeutic effect than acetylspiramycin and 3, 3", 4"-tri-O-acetylspiramycin I |  | 
